Results on 26 compounds are retold here after ChEMBL document CHEMBL1201862, “PubChem BioAssay data set” (2004).

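Growth conditions: 96-well plates. Treatment: test compound, 48 hours, 5 concentrations. Analysis: linear interpolation between bracketing concentrations; unreached endpoints set to highest concentration. GI50 is the concentration that inhibits growth by half.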 Activity calls are given as the source filed them. No stated cut-off is given here; in the data, active = GI50 up to about 1.1 µM and inactive = higher.

Test systems include MDA-N; BT-549; MDA-MB-231; T47D; RXF 631; HOP-18; LXFL 529; XF498; PC-3.
Holding throughout (assay): NCI tumour cell line growth inhibition, 48 h

Regarding `CCC(=O)NC(OCC1(CC)COC1)(C(F)(F)F)C(F)(F)F`, the GI50 with MDA-N, with BT-549, with MDA-MB-231 and in the assay on T47D was > 100 µM (inactive) in each case.

For `Clc1ccc(CCc2ccncn2)c(Cl)c1`, the GI50 with RXF 631 was 60.1 µM (inactive); with HOP-18, 33.3 µM (inactive); in the assay with LXFL 529, 36.3 µM (inactive).

For `O=C(Nc1nc2ncn(CCNCc3ccccc3)c2c(=O)[nH]1)c1ccccc1`, the GI50 in the assay on RXF 631 was 41.5 µM (inactive); in the assay with HOP-18 it was > 100 µM (inactive); in the assay with LXFL 529 it was > 100 µM (inactive).

As for `OCc1nnn2c1CCC2`, the GI50 with XF498, with HOP-18 and in the assay on LXFL 529 was > 100 µM (inactive) throughout.

On to `CC1=NN(C(=O)c2ccc(Cl)cc2)C(=O)C1/N=N/c1ccc(S(=O)(=O)Nc2ncccn2)cc1` (centres undefined), for which the GI50 with BT-549 was > 100 µM (inactive); with MDA-MB-231, > 100 µM (inactive); with PC-3, 0.217 µM (active); with T47D, > 100 µM (inactive).

Take `CN1C(=O)CN2C(Cl)(Cl)C2(c2ccccc2)c2cc(Cl)ccc21` (centres undefined): the GI50 in the assay on LXFL 529 is > 100 µM (inactive).

`CC12CC3(C)CC(C)(C1)CC(N=[N+]=[N-])(C2)C3`: the GI50 in the assay on XF498, in the assay on RXF 631, in the assay with HOP-18 and in the assay on LXFL 529 was > 100 µM (inactive) throughout.

For the compound `CC(=O)OCC1OC(n2cc(F)c(=O)[nH]c2=O)C(N)C(OC(C)=O)C1OC(C)=O` (centres undefined), the GI50 with XF498 and with HOP-18 was > 100 µM (inactive) each time.

Take `Cc1c(N2C(=O)CS(=O)(=O)C2c2cccc(Oc3ccccc3)c2)c(=O)n(-c2ccccc2)n1C` (centres undefined): the GI50 was 24.8 µM (inactive) with MDA-N; 29.5 µM (inactive) in the assay with BT-549; > 100 µM (inactive) with MDA-MB-231; 43.3 µM (inactive) in the assay with PC-3; 29 µM (inactive) in the assay with T47D.

`Cc1[nH]c(=O)[nH]c(=O)c1/C=C/C(=O)NC(CO)C[S+]([O-])C[S+](C)[O-]` (centres undefined): the values for the GI50 in the assay with XF498 and with HOP-18 were 1.74 µM (inactive) and 59.3 µM (inactive), respectively.

For the compound `S=c1nc(Nc2ccc(Br)cc2)c2c3c(sc2[nH]1)CN(N1CCc2c(sc4[nH]c(=S)nc(Nc5ccc(Br)cc5)c24)C1)CC3`, the GI50 was 12.6 µM (inactive) in the assay on MDA-N; > 50 µM (inactive) in the assay with BT-549; 17.9 µM (inactive) in the assay with MDA-MB-231; 38.8 µM (inactive) in the assay with PC-3; 8.79 µM (inactive) in the assay with T47D.

Turning to `CCCO[C@@H]1[C@@H](OC(C)=O)[C@@H](OC(C)=O)C(C)(C)/C=C/[C@H](C)C(=O)[C@@]2(OC(C)=O)C[C@@](C)(OC(C)=O)[C@H](OC(C)=O)[C@@H]2[C@H]2OC(=O)CC[C@@]12OC(=O)c1ccccc1`, the GI50 with MDA-N was 14.9 µM (inactive); with BT-549 it was 22.9 µM (inactive); in the assay with MDA-MB-231, > 25 µM (inactive); with PC-3 it was 20.4 µM (inactive); with T47D, > 25 µM (inactive).

`O=C1C(c2ccc(C3=[N+]([O-])c4cc([N+](=O)[O-])ccc4C3=O)cc2)=[N+]([O-])c2cc([N+](=O)[O-])ccc21`: the GI50 was > 10 µM (inactive) in the assay with XF498, > 100 µM (inactive) in the assay on HOP-18 and > 10 µM (inactive) in the assay on LXFL 529.

Consider `COc1ccc2[nH]c(Cl)c(/C=C3/C(=O)Nc4cc(C)c(OC)cc43)c2c1`, for which the GI50 in the assay with MDA-N is 1.58 µM (inactive); with BT-549, 3.2 µM (inactive); in the assay on MDA-MB-231, 3.81 µM (inactive); in the assay on PC-3 it was 3.33 µM (inactive); with T47D it was 5.96 µM (inactive).

Regarding `C1#Cc2ccccc2OCCOc2ccccc2C#Cc2ccccc2OCCOc2ccccc21`, the GI50 in the assay on MDA-N was > 100 µM (inactive); in the assay on BT-549 it was 16.6 µM (inactive); in the assay on MDA-MB-231, 17.7 µM (inactive); in the assay with PC-3, 52 µM (inactive); in the assay on T47D, 49.5 µM (inactive).

With `S=c1sc2cscc2s1`, the GI50 with XF498 is 23.3 µM (inactive); in the assay on RXF 631, 24.9 µM (inactive); in the assay with HOP-18, 20.7 µM (inactive); in the assay with LXFL 529 it was 20.2 µM (inactive).

Take `Cc1cc(C)c2c(n1)S(=O)(=O)N(CCCN1CCN(c3cccc(C(F)(F)F)c3)CC1)C(C(=O)c1ccccc1)=C2O`: the GI50 was 5.5 µM (inactive) in the assay on MDA-N; 16 µM (inactive) in the assay with BT-549; 20.3 µM (inactive) with MDA-MB-231; 9.82 µM (inactive) in the assay with PC-3; 13.1 µM (inactive) in the assay on T47D.

On to `O=C1CSc2sc(=S)sc2S1`, for which the GI50 in the assay on XF498 was > 100 µM (inactive); in the assay with HOP-18 it was > 84.3 µM (inactive).

Regarding `CN(C)C(=S)/N=c1\ss/c(=N\S(=O)(=O)c2ccccc2)n1-c1ccccc1`, the GI50 is 19.5 µM (inactive) in the assay on XF498, > 100 µM (inactive) with RXF 631, 32.6 µM (inactive) with HOP-18 and 0.0481 µM (active) with LXFL 529.

For `CC(=O)OCC1=C(COC(C)=O)C(=O)c2c(O)ccc(O)c2C1=O`, the GI50 with HOP-18 was 21 µM (inactive); in the assay on LXFL 529 it was 2.55 µM (inactive).

With `CCN(CC)CCNCc1cc(Cl)cc2c1OCOC2`, the GI50 in the assay on MDA-N, in the assay with MDA-MB-231, in the assay with PC-3 and in the assay with T47D was > 10 µM (inactive) throughout.

In the case of `O=c1cnn(CCOCP(=O)(O)O)c(=O)[nH]1`, the GI50 in the assay with MDA-N, in the assay on BT-549, with MDA-MB-231, in the assay on PC-3 and in the assay on T47D was > 100 µM (inactive) each time.

Take `COc1ccc(C2C(N)=NCC2c2ccccn2)cc1` (centres undefined): the GI50 in the assay on XF498 is > 100 µM (inactive); in the assay on RXF 631, > 100 µM (inactive); with HOP-18 it was 30.1 µM (inactive); in the assay with LXFL 529, > 100 µM (inactive).

Regarding `CN(C)c1ccc(/C=N/c2ccc(Oc3ccc(Cl)cc3)c(Cl)c2)cc1`, the GI50 in the assay with MDA-N is 21.7 µM (inactive); in the assay with BT-549, 16.6 µM (inactive); in the assay with MDA-MB-231, 16.5 µM (inactive); in the assay on PC-3, 15.2 µM (inactive); with T47D, 16.8 µM (inactive).

For `COc1ccc(CC/N=C2\CCC(C(=O)NCCc3ccc(OC)c(OC)c3)N2)cc1OC` (centres undefined), the GI50 in the assay with XF498, in the assay on RXF 631, in the assay on HOP-18 and in the assay with LXFL 529 was > 100 µM (inactive) in each case.

For the compound `C/C=C1\NC(=O)[C@H]2CSSCCC=C[C@H](CC(=O)N[C@H](C(C)C)C(=O)N2)OC(=O)[C@H](C(C)C)NC1=O`, the GI50 was 0.00285 µM (active) in the assay with XF498; 2.17e-05 µM (active) in the assay on MDA-N; 2.43e-05 µM (active) in the assay on MDA-MB-231; 4.88e-05 µM (active) with PC-3; 0.00412 µM (active) in the assay with HOP-18; 4.39e-05 µM (active) in the assay on T47D.
